Values quoted from earlier work, collected in paper PMC7761982, “FDA-Approved Drugs with Potent In Vitro Antiviral Activity against Severe Acute Respiratory Syndrome Coronavirus 2” (Pharmaceuticals, 2020).

Tested on: SARS-CoV-2
Conditions: in vitro; read-out: IC50 against SARS-CoV-2 (reported); cited from earlier work

SMILES: CC(=O)Oc1ccccc1C(=O)Nc1ncc([N+](=O)[O-])s1 [Nitazoxanide]
- IC50: 2120 nM
